Assay results reported in patent publication US9707272B2, “Method for the treatment of acne by administering IL-1β antibody” (UNIVERSITAT ZURICH, priority 2011, dated 2017).

Legend:
[1] = system: IL-1β secretion from human monocytes; assay: IL-1β secretion (ELISA) and maturation (western blot) from human monocytes exposed to P. acnes or inflammasome activators; format: cell-based; settings: upLPS-primed human monocytes, P. acnes MOI=100, 6 h; Glibenclamide or KCl 65 mM added one hour prior, FIG. 3f
Procedure: For Western blotting cell culture supernatants were precipitated by addition of 0.25 volumes of trichloroacetic acid (100% w/v), 10 min incubation on ice and centrifugation for 5 min at 14,000 g. Protein pellet was washed twice with ice-cold acetone, centrifuged as described above and dried at 70° C. Cells were lysed with buffer (10 mM Tris pH 7.5, 1% NP-40, 150 mM NaCl, 5 mM EDTA,) containing a protease inhibitor cocktail. Proteins were separated on a NuPAGE gel in accordance with the manufacturer's protocol and transferred to a Hybond-C-Extra membrane by electroblotting. […] Appropriate HRP-conjugated secondary antibodies were used and proteins were detected using ECL reagent. […]
Human monocytes were primed with upLPS and infected with P. acnes (MOI=100) or stimulated with MSU crystals ([…]) in the presence of vehicle (DMSO) or pan-caspase inhibitor (Z-VAD-fmk, […]) for 24 h (FIG. 2a). IL-1β secretion was determined by ELISA and mature IL-1β release (IL-1β p17) by western blot. […]
THP1 cells were treated with vehicle (DMSO) or cytochalasin D (Cyt. D, […]) for one hour and then incubated with CFSE-labeled P. acnes (MOI=100) for 4 h or left untreated (FIG. 3a). Bacteria uptake was analyzed by FACS. […] IL-1β (FIG. 3f) and TNFα (FIG. 3g) release were determined after 6 h by ELISA. […]

TLR2−/− mice = assay: Intradermal P. acnes ear inflammation model in TLR2-deficient mice; format: in vivo, mouse; settings: treatment with IL-1Ra or anti-IL-1β antibody; for development of cutaneous inflammation: histology, FIG. 4i; for development of ear swelling: FIG. 4g
Procedure: (§1) C57BL/6 mice received three intraperitoneal (i.p.) injections of IL-1 receptor antagonist (IL-1Ra, Anakinra, 150 mg/kg) or PBS at 8 h intervals. One hour after first i.p. injection of IL-1Ra mice received intradermal injections of P. acnes or PBS. TNFα inhibitor (Etanercept) and anti-IL-1β antibody treated mice (Canakinumab, […]) C57BL/6 mice received i.p. injection 24 h before an intradermal injection of P. acnes or PBS. To make bone marrow chimeras indicated mice were lethally irradiated (10 Gy) and subsequently transplanted with indicated bone marrow. After bone marrow reconstitution (8 weeks later) mice were interdermally injected with P. acnes or PBS.
(§2) The ear thickness was measured using a micro caliper before and 24 h after bacterial injection. The percentage of ear thickness was calculated by comparing the ear thickness before and 24 hours after injection.
(§3) WT mice were injected intradermally with P. acnes (20×10^6 CFU/[…] in PBS, left ear) or with an equal amount of PBS (right ear) (FIG. 4a). Mice were treated with vehicle (n=11) or three intraperitoneal injections of IL-1Ra (Anakinra, 150 mg/kg, n=13) at the 8 h intervals or a single i.p. injection of anti-IL1β antibody ([…]) one hour prior to P. acnes or PBS challenge. The ear swelling as measured 24 hrs later is presented. ASC^−/− mice were challenged the same way with P. acnes. The resulting ear swelling (FIG. 4b) and pro- and mature-IL1β in ear extracts (FIG. 4c) are presented. […] WT mice reconstituted with WT (n=8-10), ASC^−/− (n=12) or NLRP3^−/− (n=8) bone marrow were challenged with P. acnes or PBS as described above. The resulting swelling (FIG. 4e) and histology of the infected ear (FIG. 4f) are presented. TLR2^−/− (n=10) were intradermally injected with P. acnes or PBS one hour after treatment with IL-1Ra (n=10) or anti-IL-1β antibody (n=9) as described above. The resulting ear swelling (FIG. 4g) and histology (FIG. 4i) are presented.

C57BL/6 WT mice = assay: Intradermal P. acnes ear inflammation model in WT mice; format: in vivo, mouse; settings: for ear swelling: intradermal P. acnes 20×10^6 CFU, 24 h, i.p. IL-1Ra 150 mg/kg three times at 8 h intervals or single i.p. anti-IL1β antibody, FIG. 4a; for subcutaneous neutrophil infiltration: intradermal P. acnes, histology (HE), i.p. IL-1Ra or anti-IL1β antibody, FIG. 4d
Procedure: as §1, §2, §3

Molecule: [Cl-].[K+] [KCl]
- IL-1β release [1]: significant reduction

Molecule: Anakinra [IL-1Ra]
- development of cutaneous inflammation (TLR2−/− mice): blocked
- development of ear swelling (TLR2−/− mice): blocked
- ear swelling (C57BL/6 WT mice): significant reduction
- subcutaneous neutrophil infiltration (C57BL/6 WT mice): significant reduction
- subcutaneous neutrophil infiltration (C57BL/6 WT mice; listed as IL-1 receptor antagonist): selective blockade

Molecule: COc1ccc(Cl)cc1C(=O)NCCc1ccc(S(=O)(=O)NC(=O)NC2CCCCC2)cc1 [glibenclamide, 5-Chloro-N-[2-[4-(cyclohexylcarbamoylsulfamoyl)phenyl]ethyl]-2-methoxy-benzamide]
- IL-1β release [1]: significant reduction

B1: Canakinumab (antibody, V domains shown)
VH: QVQLVESGGGVVQPGRSLRLSCAASGFTFSVYGMNWVRQAPGKGLEWVAIIWYDGDNQYYADSVKGRFTISRDNSKNTLYLQMNGLRAEDTAVYYCARDLRTGPFDYWGQGTLVTVSS
VL: EIVLTQSPDFQSVTPKEKVTITCRASQSIGSSLHWYQQKPDQSPKLLIKYASQSFSGVPSRFSGSGSGTDFTLTINSLEAEDAAAYYCHQSSSLPFTFGPGTKVDIK
modifications: antibody fragment
notes: Id; No. 1 and 2
- development of cutaneous inflammation (TLR2−/− mice): blocked
- development of ear swelling (TLR2−/− mice): blocked
- ear swelling (C57BL/6 WT mice): significant reduction
- subcutaneous neutrophil infiltration (C57BL/6 WT mice): significant reduction
- subcutaneous neutrophil infiltration (C57BL/6 WT mice; listed as monoclonal anti-IL1β antibody): selective blockade
